We go through one molecule from patent US7321059B2, “Compounds for use as surfactants” (Glaxo Group Limited, priority 2001, dated 2008).

Data set [1] in a line: Deposition of drug on valve and can of salmeterol xinafoate HFA 134a MDI formulations (HPLC). The format is physicochemical. As to conditions: salmeterol xinafoate 1.50 mg in HFA 134a 3 g, surfactant 0.15 mg (10% w/w relative to drug). The method, then:
Salmeterol xinafoate formulations in HFA 134a, strength 25 mcg per dose for each of 60 actuations, and 10% w/w (relative to drug) of the relevant surfactant compound of formula (I) (i.e. Example 3 or Example 4) were prepared in aluminum cans with a crimped cap containing a metering valve using salmeterol xinafoate (1.50 mg), HFA 134a (3 g) and the relevant compound (0.15 mg). The control was prepared without the addition of a surfactant.
Cans containing the said formulations for analysis were cooled to […] to liquefy the propellant therein. These were then opened and the contents collected in a vessel. The valve and the empty can were quantitatively washed. The washings for each component were kept separate. The amount of drug in: the contents removed from the can, the valve washings and the can washing was quantified by HPLC analysis.
Therefore, the presence of said surfactants in formulations seems to reduce the deposition of the drug on the can and valve.

The nature of data set [2]: Content uniformity by dose through use testing of salmeterol xinafoate HFA 134a MDI formulations. As to conditions: salmeterol xinafoate 25 mcg per actuation in HFA 134a. The format is physicochemical. The method, then:
Salmeterol xinafoate formulations in HFA 134a, of strength 25 mcg per actuation, and 10% w/w (relative to drug) of the relevant surfactant compound of formula (I) (i.e. Example 3 or Example 4) prepared in aluminum cans with a crimped cap containing a metering valve using salmeterol xinafoate (8.7 mg), HFA 134a (18 g) and the relevant compound (0.87 mg). The control was prepared without the addition of a surfactant. The content uniformity of the formulations was assessed by dose through use testing. Testing was performed on a set of 10 cans/inhalers for each of the formulations, at “beginning of use” (BoU) and “end of use” (EoU). After each inhaler had been primed (4 shots fired to waste), actuations 1 and 2 (BoU) were collected. The next 116 actuations of each inhaler were then fired to waste using an automated method and actuations 119 and 120 (EoU) collected.
In the control there was a rise from beginning to end of use of 5.6 mcg. However, in the presence of the said surfactant compound this rise was reduced to 1.4 mcg for formulations incorporating a compound of Example 3 and 2.8 mcg for formulations incorporating a compound of Example 4. There was also a reduction in the percentage RSD at BoU for the formulations incorporating said surfactant compounds, thereby showing improved can to can reproducibility. Furthermore, there was also a reduction in the percentage RSD at EoU for the formulations incorporating Example 4. The presence of the said surfactants therefore improves the content uniformity of the inhaler.

As to `COCCOCCOCCOCCCOCC(OCCCOCCOCCOCCOC)C(=O)O` (centres unmarked) [Example 3, 17-(4,7,10,13-Tetraoxatetradec-1-yloxy)-2,5,8,11,15-pentaoxaoctadecan-18-oic acid], in data set [1] (aluminum can), the “Can Deposition” value was found to be 0.25 mg and the “Valve Deposition” value was 0.33 mg. In addition, in data set [1] (contents removed from can), the “Drug Content In Can” value stood at 0.56 mg. The “BoU Dose % RSD” value in data set [2] (can to can reproducibility at beginning of use, 10% w/w surfactant, 10 cans) is listed as 0.7%. The “EoU Dose % RSD” value in data set [2] (can to can reproducibility at end of use, 10% w/w surfactant, 10 cans) was found to be 13.9%. In addition, the “EoU − BoU (rise in dose from beginning to end of use)” value in data set [2] (10% w/w surfactant relative to drug) was found to be 1.4 µg. Besides, in data set [2] (10% w/w surfactant relative to drug, beginning of use, actuations 1 and 2, 10 cans), the “BoU Dose” value turned out to be 15.8 µg. In addition, the “EoU Dose” value in data set [2] (10% w/w surfactant relative to drug, end of use, actuations 119 and 120, 10 cans) came out at 17.2 µg.
